Values of other authors as cited in PMC10323144, “Garbage in, garbage out: how reliable training data improved a virtual screening approach against SARS-CoV-2 MPro” (Frontiers in Pharmacology, 2023).

Test system: MPro
Settings: compiled from peer-reviewed sources (287 compounds) ref the 18 original articles; cited from earlier work

| Structure (SMILES) | Class (MPro activity class) |
| --- | --- |
| CC(C)CC(NC(=O)OCc1ccccc1)C(=O)NC(CC1CCNC1=O)C(O)S(=O)(=O)O (centres unmarked) [GC-376] | 1 (Compounds with IC50 < 10 µM or with a percentage of enzyme inhibition >50% at 10 µM were labelled as ACTIVE) |
| O=C(CCl)N1CCN(C(c2ccccc2)C2CCCCC2)CC1 (centres unmarked) [GIA-UNK-20b63697-6] | 1 (Compounds with IC50 < 10 µM or with a percentage of enzyme inhibition >50% at 10 µM were labelled as ACTIVE) |
| O=C(OCC(O)CO)c1ccccc1Nc1ccnc2cc(Cl)ccc12 (centres unmarked) [GLAFENINE] | 0 (compounds with IC50 > 20 μM, percentage inhibition <80% at 20 µM or 50 μM, or percentage enzyme inhibition <50% at 10 µM were labelled as INACTIVE) |
| O=C(Oc1cncc(Cl)c1)c1cccc2c1CCN2 [GRL-172] | 1 (Compounds with IC50 < 10 µM or with a percentage of enzyme inhibition >50% at 10 µM were labelled as ACTIVE) |
| COc1cccc(Nc2c(C(N)=O)cnc3c(C)cc(S(=O)(=O)c4cccc(C(=O)N(C)C)c4)cc23)c1 [GSK-256066] | 0 (compounds with IC50 > 20 μM, percentage inhibition <80% at 20 µM or 50 μM, or percentage enzyme inhibition <50% at 10 µM were labelled as INACTIVE) |
| CCOC(=O)c1ccc(OC(=O)CCCCCNC(=N)N)cc1 [Gabexate] | 0 (compounds with IC50 > 20 μM, percentage inhibition <80% at 20 µM or 50 μM, or percentage enzyme inhibition <50% at 10 µM were labelled as INACTIVE) |
| CC(C)(C)[C@@H]1NC(=O)O[C@@H]2CCC[C@H]2OC/C=C/C(F)(F)c2nc3ccccc3nc2O[C@@H]2C[C@@H](C(=O)N[C@]3(C(=O)NS(=O)(=O)C4(C)CC4)C[C@H]3C(F)F)N(C2)C1=O [Glecaprevir] | 0 (compounds with IC50 > 20 μM, percentage inhibition <80% at 20 µM or 50 μM, or percentage enzyme inhibition <50% at 10 µM were labelled as INACTIVE) |
| O=c1c(O)c(-c2ccc(O)cc2)oc2c(O)c(O)cc(O)c12 [Herbacetin] | 0 (compounds with IC50 > 20 μM, percentage inhibition <80% at 20 µM or 50 μM, or percentage enzyme inhibition <50% at 10 µM were labelled as INACTIVE) |
| CCN(CCO)CCCC(C)Nc1ccnc2cc(Cl)ccc12 (centres unmarked) [Hydroxychloroquine] | 0 (compounds with IC50 > 20 μM, percentage inhibition <80% at 20 µM or 50 μM, or percentage enzyme inhibition <50% at 10 µM were labelled as INACTIVE) |
| Cc1cc(C(=O)CN2CCCC2)c(C)n1-c1ccc(F)cc1 [IU1 S7134] | 0 (compounds with IC50 > 20 μM, percentage inhibition <80% at 20 µM or 50 μM, or percentage enzyme inhibition <50% at 10 µM were labelled as INACTIVE) |
| CNC(=O)[C@H](Cc1c[nH]c2ccccc12)NC(=O)[C@@H](CC(=O)NO)CC(C)C [Ilomastat] | 0 (compounds with IC50 > 20 μM, percentage inhibition <80% at 20 µM or 50 μM, or percentage enzyme inhibition <50% at 10 µM were labelled as INACTIVE) |
| O=C(C=Cc1ccc(O)c(O)c1)OC1CC(O)(C(=O)O)CC(OC(=O)C=Cc2ccc(O)c(O)c2)C1O (centres unmarked) [Isochlorogenic acid A] | 0 (compounds with IC50 > 20 μM, percentage inhibition <80% at 20 µM or 50 μM, or percentage enzyme inhibition <50% at 10 µM were labelled as INACTIVE) |
| O=C(C=Cc1ccc(O)c(O)c1)OC1CC(O)(C(=O)O)CC(O)C1OC(=O)C=Cc1ccc(O)c(O)c1 (centres unmarked) [Isochlorogenic acid B] | 0 (compounds with IC50 > 20 μM, percentage inhibition <80% at 20 µM or 50 μM, or percentage enzyme inhibition <50% at 10 µM were labelled as INACTIVE) |
| CCC(C)n1ncn(-c2ccc(N3CCN(c4ccc(OCC5COC(Cn6cncn6)(c6ccc(Cl)cc6Cl)O5)cc4)CC3)cc2)c1=O (centres unmarked) [Itraconazole] | 0 (compounds with IC50 > 20 μM, percentage inhibition <80% at 20 µM or 50 μM, or percentage enzyme inhibition <50% at 10 µM were labelled as INACTIVE) |
| CCC(C)C1OC2(CCC1C)CC1CC(CC=C(C)C(OC3CC(OC)C(OC4CC(OC)C(O)C(C)O4)C(C)O3)C(C)C=CC=C3COC4C(O)C(C)=CC(C(=O)O1)C34O)O2 (centres unmarked) [Ivermectin] | 0 (compounds with IC50 > 20 μM, percentage inhibition <80% at 20 µM or 50 μM, or percentage enzyme inhibition <50% at 10 µM were labelled as INACTIVE) |
| O=C(Cc1cccc(Cl)c1)Nn1cnc2ccccc21 [JAN-GHE-5a013bed-2] | 1 (Compounds with IC50 < 10 µM or with a percentage of enzyme inhibition >50% at 10 µM were labelled as ACTIVE) |
| O=C(Cc1cccc(Cl)c1)Nn1cnc2ccccc2c1=O [JAN-GHE-5a013bed-3] | 1 (Compounds with IC50 < 10 µM or with a percentage of enzyme inhibition >50% at 10 µM were labelled as ACTIVE) |
| Cc1ccncc1NC(=O)Cc1cccc(Br)c1 [JAN-GHE-83b26c96-12] | 0 (compounds with IC50 > 20 μM, percentage inhibition <80% at 20 µM or 50 μM, or percentage enzyme inhibition <50% at 10 µM were labelled as INACTIVE) |
| O=C(Nc1cccnc1)N(CCC1CCCCC1)c1cccc(Cl)c1 [JOR-UNI-2fc98d0b-12] | 1 (Compounds with IC50 < 10 µM or with a percentage of enzyme inhibition >50% at 10 µM were labelled as ACTIVE) |
| O=C(Nc1cnn2ccc(N3CCC[C@@H]3c3cc(F)ccc3F)nc12)N1CC[C@H](O)C1 [LAROTRECTINIB] | 0 (compounds with IC50 > 20 μM, percentage inhibition <80% at 20 µM or 50 μM, or percentage enzyme inhibition <50% at 10 µM were labelled as INACTIVE) |
| Cc1nn(-c2ccccc2)c(Nc2cccc(C(F)(F)F)c2)c1NS(C)(=O)=O [LASSBio-428 (10)] | 0 (compounds with IC50 > 20 μM, percentage inhibition <80% at 20 µM or 50 μM, or percentage enzyme inhibition <50% at 10 µM were labelled as INACTIVE) |

| Structure (SMILES) | Class (MPro activity class) |
| --- | --- |
| O=C(NN=Cc1c[nH]cn1)C1CCCCC1 [LASSBio-1600 (15)] | 0 (compounds with IC50 > 20 μM, percentage inhibition <80% at 20 µM or 50 μM, or percentage enzyme inhibition <50% at 10 µM were labelled as INACTIVE) |
| O=C(CNc1c(-c2ccccc2)nc2ccccn12)NN=Cc1cccc2ccccc12 [LASSBio-1615 (11)] | 0 (compounds with IC50 > 20 μM, percentage inhibition <80% at 20 µM or 50 μM, or percentage enzyme inhibition <50% at 10 µM were labelled as INACTIVE) |
| Cc1[nH]c2ccccc2c1C=NN(C)C(=O)c1ccc2c(c1)OCO2 [LASSBio-1649 (13)] | 0 (compounds with IC50 > 20 μM, percentage inhibition <80% at 20 µM or 50 μM, or percentage enzyme inhibition <50% at 10 µM were labelled as INACTIVE) |
| CN1C(=O)C(=NNC(=O)c2ccc3c(c2)OCO3)c2ccccc21 [LASSBio-1652 (16)] | 0 (compounds with IC50 > 20 μM, percentage inhibition <80% at 20 µM or 50 μM, or percentage enzyme inhibition <50% at 10 µM were labelled as INACTIVE) |
| Cc1csc(C(=O)NN=Cc2cccnc2)c1N [LASSBio-1891 (14)] | 0 (compounds with IC50 > 20 μM, percentage inhibition <80% at 20 µM or 50 μM, or percentage enzyme inhibition <50% at 10 µM were labelled as INACTIVE) |
| O=C(Nc1ccccc1)Nc1cnc2ccc([N+](=O)[O-])cc2n1 [LASSBio-1962 (8)] | 0 (compounds with IC50 > 20 μM, percentage inhibition <80% at 20 µM or 50 μM, or percentage enzyme inhibition <50% at 10 µM were labelled as INACTIVE) |
| CC(=O)ON=C1C(=O)N(Cc2cc(Cl)ccc2Cl)c2ccc(Cl)cc21 [LDN-57444] | 0 (compounds with IC50 > 20 μM, percentage inhibition <80% at 20 µM or 50 μM, or percentage enzyme inhibition <50% at 10 µM were labelled as INACTIVE) |
| O=C(CCl)N1CCN(S(=O)(=O)c2c(F)cccc2F)CC1 [LON-WEI-8f408cad-2] | 1 (Compounds with IC50 < 10 µM or with a percentage of enzyme inhibition >50% at 10 µM were labelled as ACTIVE) |
| O=C(CCl)N1CCN(S(=O)(=O)c2cccs2)CC1 [LON-WEI-8f408cad-3] | 1 (Compounds with IC50 < 10 µM or with a percentage of enzyme inhibition >50% at 10 µM were labelled as ACTIVE) |
| O=C(CCl)N1CCN(S(=O)(=O)c2cccc(F)c2)CC1 [LON-WEI-8f408cad-4] | 1 (Compounds with IC50 < 10 µM or with a percentage of enzyme inhibition >50% at 10 µM were labelled as ACTIVE) |
| C=CC(=O)N(c1ccc(C(C)(C)C)cc1)C(C(=O)Nc1ccc(OC)cc1OC)c1cccnc1 (centres unmarked) [LON-WEI-adc59df6-45] | 1 (Compounds with IC50 < 10 µM or with a percentage of enzyme inhibition >50% at 10 µM were labelled as ACTIVE) |
| C=CC(=O)N(c1ccc(C(C)(C)C)cc1)C(C(=O)NCCc1cccc(F)c1)c1cccnc1 (centres unmarked) [LON-WEI-adc59df6-47] | 1 (Compounds with IC50 < 10 µM or with a percentage of enzyme inhibition >50% at 10 µM were labelled as ACTIVE) |
| C=CC(=O)N(c1ccc(C(C)(C)C)cc1)C(C(=O)NCCc1cccc(F)c1)c1cncc(C#N)c1 (centres unmarked) [LON-WEI-babf2c61-3] | 1 (Compounds with IC50 < 10 µM or with a percentage of enzyme inhibition >50% at 10 µM were labelled as ACTIVE) |
| CS(=O)(=O)c1ncc(Cl)c(C(=O)Nc2ccccc2Cc2ccccc2)n1 [LON-WEI-ff7b210a-4] | 1 (Compounds with IC50 < 10 µM or with a percentage of enzyme inhibition >50% at 10 µM were labelled as ACTIVE) |
| CCOC(=O)c1nc(S(C)(=O)=O)ncc1Cl [LON-WEI-ff7b210a-5] | 1 (Compounds with IC50 < 10 µM or with a percentage of enzyme inhibition >50% at 10 µM were labelled as ACTIVE) |
| O=C(O)c1nn(Cc2ccc(Cl)cc2Cl)c2ccccc12 [LONIDAMINE] | 0 (compounds with IC50 > 20 μM, percentage inhibition <80% at 20 µM or 50 μM, or percentage enzyme inhibition <50% at 10 µM were labelled as INACTIVE) |
| CC(NC(=O)C(O)c1cc(F)cc(F)c1)C(=O)NC1C(=O)N(C)c2ccccc2-c2ccccc21 (centres unmarked) [LY411575] | 0 (compounds with IC50 > 20 μM, percentage inhibition <80% at 20 µM or 50 μM, or percentage enzyme inhibition <50% at 10 µM were labelled as INACTIVE) |
| C[C@@]1(c2cc(-c3cncnc3)c(F)cc2F)CCSC(N)=N1 [LY2811376] | 0 (compounds with IC50 > 20 μM, percentage inhibition <80% at 20 µM or 50 μM, or percentage enzyme inhibition <50% at 10 µM were labelled as INACTIVE) |
| CC(=O)N[C@@H](CC(C)C)C(=O)N[C@@H](CC(C)C)C(=O)N[C@H](C=O)CCCNC(=N)N [Leupeptin] | 0 (compounds with IC50 > 20 μM, percentage inhibition <80% at 20 µM or 50 μM, or percentage enzyme inhibition <50% at 10 µM were labelled as INACTIVE) |
| CC#CCn1c(N2CCCC(N)C2)nc2c1c(=O)n(Cc1nc(C)c3ccccc3n1)c(=O)n2C (centres unmarked) [Linafliptin] | 0 (compounds with IC50 > 20 μM, percentage inhibition <80% at 20 µM or 50 μM, or percentage enzyme inhibition <50% at 10 µM were labelled as INACTIVE) |
